Legend:
Type in all cases: in vivo, Musa
[1] = test system: bananas; assay: Example US-5: various levels of 1-MCP; parameters: SS (sugar spots): scale not given here; conditions: 7 days
Protocol: Bananas were grown, shipped, and ripened as described in Example US-1. All bananas were in T-bags through the ripening cycle. At color stage 3.0 to 4.0, the bananas, still in T-bags, were placed in various airtight containers; in each container, a specified concentration of 1-MCP was released into the air; bananas remained in those containers for 12 hours. After that, half of each treatment group was transferred to MAP bags, and all bananas were placed into post-MCP storage as in US-1. At the end of 7 days, bananas were evaluated for sugar spots (SS), color stage (CS), and firmness (F). Firmness was measured with a Fruit Texture Analyzer (Güss Company, Republic of South Africa) using a probe of 8 mm diameter.

[2] = test system: bananas; assay: Example US-3: comparison of production batches of MAP
Excerpt: Bananas were harvested and shipped to Ephrata, Pa. as described in Example US-1 above. Upon arrival, bananas were removed from poly liners and placed into one of three types of bags: • (1) T-bags (as described above) • (2) MAP bags type M (as described above) • (3) MAP bags type D (as described above). Bananas in bags were exposed to the ripening cycle described above, except that the first day (“day 0”) of the ripening cycle was omitted. The bananas that were exposed to 1-MCP received that exposure when they were at color stage 2 to 2.2.
Additionally, a group of bananas remained in their bags at 17.8° C. for 17 days after exposure to 1-MCP and were evaluated at the end of those 17 days.

[3] = test system: bananas; assay: Example US-1: bananas transferred to MAP after shipment
Excerpt: Bananas were harvested and shipped in to Ephrata, Pa., using standard commercial practices, in standard commercial shipping bags. For shipping, bags were placed in cartons; each carton held sufficient bags so that there were approximately 18.1 kg (40 lb.) of bananas in each carton.
After arrival in Ephrata, Pa., bananas were removed from the bags in which they were shipped and placed into new bags, which were either MAP (as described above) or T-bags (as described above). The new bags held approximately 1.3 kg (3 lb.) each. The new bags were twisted and secured shut. Bags were exposed to the 5-day ripening method used in Example 2 above. After ripening, the bags were transported to Spring House, Pa. in a refrigerated truck. Upon arrival, color stage of the bananas was 3.5 to 4.5. Bags were then placed into sealed tents for 12 hours at 13.3° C. […] After that 12-hour period, samples were aired for 1 hour and then kept in place at 13.3° C. (56° F.) for 10 hours and then transferred to an evaluation room, which was maintained at 17.8° C. (64° F.).
All bags remained in the evaluation room for 8 days. Bananas were visually inspected each day, whether they were still in bags or not. The bags were divided into three groups: • A. remained in the bags for 3 days, then removed from the bags for the remaining 5 days; • B. remained in the bags for 4 days, then removed from the bags for the remaining 4 days. • C. remained in the bags for 8 days, then removed on the eighth day for evaluation.

[4] = test system: bananas; assay: Example 2B: evaluation process B (3 days post-MCP); conditions: MAP-3 and MAP-10 groups (MAP bag, 300 or 1000 ppb 1-MCP); 3 days in bag at 14° C.
Excerpt: Bananas were harvested at 13 weeks of age. Fruit bunches were separated into hands, then washed, and excess latex was removed in chlorinated water tanks using standard commercial practices. The washed hands of bananas were further broken into clusters and treated with fungicide. Clusters were placed into plastic bags; each bag held approximately 1.4 kg (3 lbs) of bananas. The bananas remained in these bags until they were removed for evaluation (see below).
At day 5 at approximately 4 pm, the bananas had reached color stage 2.5 to 3.5. Treatment groups PE-3-C, PE-10-C, MAP-3, and MAP-10 were then exposed to 1-MCP overnight at the concentrations shown above.
This Example was the same as Example 2A, except that after exposure to 1-MCP, the bananas remained in their bags in the holding room at 14° C. for 3 days instead of 4 days.

[5] = MAP with non-zero 1-MCP, 17 days in bags at 17.8° C., versus MAP without 1-MCP or T-bags with 1-MCP

CC1=CC1 [1-MCP, 1-methylcyclopropene]
CS (color stage) ([1]; MAP, 1 ppb 1-MCP): 5.2
F (firmness) ([1]; MAP, 1 ppb 1-MCP): 0.584 kg
SS (sugar spots) ([1]; MAP, 1 ppb 1-MCP): 1.8
CS (color stage) ([1]; MAP, 5 ppb 1-MCP): 4.8
F (firmness) ([1]; MAP, 5 ppb 1-MCP): 0.602 kg
SS (sugar spots) ([1]; MAP, 5 ppb 1-MCP): 0.5
CS (color stage) ([1]; MAP, 10 ppb 1-MCP): 5.4
F (firmness) ([1]; MAP, 10 ppb 1-MCP): 0.599 kg
SS (sugar spots) ([1]; MAP, 10 ppb 1-MCP): 1.5
CS (color stage) ([1]; MAP, 25 ppb 1-MCP): 5.6
F (firmness) ([1]; MAP, 25 ppb 1-MCP): 0.603 kg
SS (sugar spots) ([1]; MAP, 25 ppb 1-MCP): 0.8
CS (color stage) ([1]; MAP, 50 ppb 1-MCP): 5.5
F (firmness) ([1]; MAP, 50 ppb 1-MCP): 0.593 kg
SS (sugar spots) ([1]; MAP, 50 ppb 1-MCP): 1.0
CS (color stage) ([1]; MAP, 100 ppb 1-MCP): 5.2
F (firmness) ([1]; MAP, 100 ppb 1-MCP): 0.581 kg
SS (sugar spots) ([1]; MAP, 100 ppb 1-MCP): 1.0
CS (color stage) ([1]; MAP, 200 ppb 1-MCP): 4.9
F (firmness) ([1]; MAP, 200 ppb 1-MCP): 0.592 kg
SS (sugar spots) ([1]; MAP, 200 ppb 1-MCP): 0.8
CS (color stage) ([1]; MAP, 1000 ppb 1-MCP): 6.2
F (firmness) ([1]; MAP, 1000 ppb 1-MCP): 0.617 kg
SS (sugar spots) ([1]; MAP, 1000 ppb 1-MCP): 1.8
CS (color stage) ([1]; MAP, 5000 ppb 1-MCP): 6.2
F (firmness) ([1]; MAP, 5000 ppb 1-MCP): 0.602 kg
SS (sugar spots) ([1]; MAP, 5000 ppb 1-MCP): 1.2
CS (color stage) ([1]; MAP, 50000 ppb 1-MCP): 5.6
F (firmness) ([1]; MAP, 50000 ppb 1-MCP): 0.585 kg
SS (sugar spots) ([1]; MAP, 50000 ppb 1-MCP): 2.5
CS (color stage) ([1]; T-bag, 1 ppb 1-MCP): 6.6
F (firmness) ([1]; T-bag, 1 ppb 1-MCP): 0.561 kg
SS (sugar spots) ([1]; T-bag, 1 ppb 1-MCP): 2.2
CS (color stage) ([1]; T-bag, 5 ppb 1-MCP): 6.6
F (firmness) ([1]; T-bag, 5 ppb 1-MCP): 0.571 kg
SS (sugar spots) ([1]; T-bag, 5 ppb 1-MCP): 2.8
CS (color stage) ([1]; T-bag, 10 ppb 1-MCP): 6.6
F (firmness) ([1]; T-bag, 10 ppb 1-MCP): 0.568 kg
SS (sugar spots) ([1]; T-bag, 10 ppb 1-MCP): 2.0
CS (color stage) ([1]; T-bag, 25 ppb 1-MCP): 6.2
F (firmness) ([1]; T-bag, 25 ppb 1-MCP): 0.576 kg
SS (sugar spots) ([1]; T-bag, 25 ppb 1-MCP): 2.5
CS (color stage) ([1]; T-bag, 50 ppb 1-MCP): 7.0
F (firmness) ([1]; T-bag, 50 ppb 1-MCP): 0.591 kg
SS (sugar spots) ([1]; T-bag, 50 ppb 1-MCP): 2.2
CS (color stage) ([1]; T-bag, 100 ppb 1-MCP): 7.0
F (firmness) ([1]; T-bag, 100 ppb 1-MCP): 0.571 kg
SS (sugar spots) ([1]; T-bag, 100 ppb 1-MCP): 2.5
CS (color stage) ([1]; T-bag, 200 ppb 1-MCP): 7.0
F (firmness) ([1]; T-bag, 200 ppb 1-MCP): 0.589 kg
SS (sugar spots) ([1]; T-bag, 200 ppb 1-MCP): 3.0
CS (color stage) ([1]; T-bag, 1000 ppb 1-MCP): 7.0
F (firmness) ([1]; T-bag, 1000 ppb 1-MCP): 0.601 kg
SS (sugar spots) ([1]; T-bag, 1000 ppb 1-MCP): 3.0
CS (color stage) ([1]; T-bag, 5000 ppb 1-MCP): 6.2
F (firmness) ([1]; T-bag, 5000 ppb 1-MCP): 0.579 kg
SS (sugar spots) ([1]; T-bag, 5000 ppb 1-MCP): 3.0
CS (color stage) ([1]; T-bag, 50000 ppb 1-MCP): 6.6
F (firmness) ([1]; T-bag, 50000 ppb 1-MCP): 0.563 kg
SS (sugar spots) ([1]; T-bag, 50000 ppb 1-MCP): 2.8
development of sugar spots on holding at 17.8° C. ([2]; MAP and non-zero 1-MCP): delayed the development of sugar spots
color-stage numbers [2, 5]: lower color-stage numbers
number of sugar spots [2, 5]: lower number of sugar spots
development of color and sugar spots ([3]; 1000 ppb versus 300 ppb 1-MCP in the same type of bag): slower development of color and sugar spots
extension of shelf life, compared to T bags with no 1-MCP ([3]; MAP with non-zero 1-MCP): 8 days
development of color and sugar spots after removal from bags ([3]; MAP, 300 ppb or 1000 ppb 1-MCP versus MAP with zero 1-MCP): slower development of color and sugar spots
development of color and sugar spots ([3]; MAP, 300 ppb or 1000 ppb 1-MCP versus T-bags): much slower development of color and sugar spots
development of color and sugar spots ([3]; T-bags, 300 ppb or 1000 ppb 1-MCP versus zero): slower development of color and sugar spots
color and sugar spots versus comparative examples [4]: same type of improvements over the comparative examples as in Example 2A

Reference: patent publication US9265268B2, “Method of handling bananas” (priority 2009, dated 2016)
